Measured values reported in patent publication US20240424113A1, “CONJUGATES COMPRISING ANTIFUNGALS AND HEAT SHOCK PROTEIN 90 (HSP90) INHIBITORS AND METHODS OF USE THEREOF” (Bright Angel Therapeutics Inc., priority 2021, published 2024).
In brackets after ≈: the same amount, converted by molar mass.

How the values were obtained:
[1] = biological target: Hsp90 Nuclear Binding Domain (NBD) (Aspergillus fumigatus, UniProt P40292); experiment: Surface Plasmon Resonance (SPR) binding, A. fumigatus Hsp90 NBD; details: biotinylated Hsp90 NBD on streptavidin chip, 25° C., 1:1 binding model; NB undefined
Sequence of Hsp90 Nuclear Binding Domain (NBD) (Aspergillus fumigatus, UniProt P40292) (P40292 whole entry, looked up, the tested form may be a part): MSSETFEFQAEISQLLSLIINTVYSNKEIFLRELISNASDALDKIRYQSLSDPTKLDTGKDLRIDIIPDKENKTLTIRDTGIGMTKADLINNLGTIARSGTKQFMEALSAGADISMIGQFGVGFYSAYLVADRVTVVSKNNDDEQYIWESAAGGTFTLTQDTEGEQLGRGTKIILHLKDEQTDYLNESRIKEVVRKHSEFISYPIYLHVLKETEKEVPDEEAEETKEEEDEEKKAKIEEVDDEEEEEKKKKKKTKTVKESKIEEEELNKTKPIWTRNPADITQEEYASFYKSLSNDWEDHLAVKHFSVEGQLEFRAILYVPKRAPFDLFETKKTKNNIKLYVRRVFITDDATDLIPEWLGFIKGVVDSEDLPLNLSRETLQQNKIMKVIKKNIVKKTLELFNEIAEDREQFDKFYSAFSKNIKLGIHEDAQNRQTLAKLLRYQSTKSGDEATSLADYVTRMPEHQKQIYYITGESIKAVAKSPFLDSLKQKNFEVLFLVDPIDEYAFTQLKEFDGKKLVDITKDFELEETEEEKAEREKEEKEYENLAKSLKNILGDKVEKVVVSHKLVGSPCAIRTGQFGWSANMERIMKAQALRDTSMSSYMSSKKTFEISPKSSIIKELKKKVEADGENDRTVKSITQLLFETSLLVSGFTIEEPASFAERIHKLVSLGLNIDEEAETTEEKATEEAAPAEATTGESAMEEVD
Method in brief: (§1)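 Biacore S200 at 25° C; AviTag-biotinylated recombinant Hsp90 NBD captured on streptavidin chip at 2000-2500 RU. Compound dilution series run in HBS-P pH 7.4 with 2% DMSO at 40 μL/min, 60 s association and 600 s dissociation. Sensorgrams fitted to a 1:1 binding model.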

HepG2 cells = experiment: Mammalian cell toxicity (Cell Titer-Glo); format: cell-based
Protocol: Mammalian Cell Toxicity. HepG2 cells were seeded overnight at 500 cells/well in 384-well plate, then incubated with compounds (10-point concentration titration) for 48 h. Cell Titer-Glo® reagent ([…]) was added to each well and after 10-minute incubation at room temperature the luminescent signal was measured using an Envision plate reader (Perkin Elmer).

CaCl2 = experiment: Antifungal sensitivity testing (broth microdilution MIC); format: cell-based; details: 96-well broth microdilution
Method in brief: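 Broth microdilution MIC per a modified published protocol; compounds dissolved in DMSO, fluconazole in water; duplicates in at least two independent experiments. Fungicidal activity checked by spotting MIC-plate cultures onto YPD agar, read after 24 h at 30° C.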

[2] = biological target: Hsp90 Nuclear Binding Domain (NBD) (Candida albicans (strain SC5314 / ATCC MYA-2876) (Yeast), UniProt P46598); experiment: Surface Plasmon Resonance (SPR) binding, C. albicans Hsp90 NBD; details: biotinylated Hsp90 NBD on streptavidin chip, 25° C., 1:1 binding model
Sequence of Hsp90 Nuclear Binding Domain (NBD) (Candida albicans (strain SC5314 / ATCC MYA-2876) (Yeast), UniProt P46598) (P46598 1-218 limits assumed): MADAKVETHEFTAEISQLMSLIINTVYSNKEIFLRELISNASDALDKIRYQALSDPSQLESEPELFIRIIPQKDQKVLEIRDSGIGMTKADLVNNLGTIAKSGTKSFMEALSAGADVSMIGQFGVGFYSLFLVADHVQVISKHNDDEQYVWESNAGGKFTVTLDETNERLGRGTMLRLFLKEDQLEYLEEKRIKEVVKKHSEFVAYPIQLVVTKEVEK
Method in brief: as §1

SMILES	Kd [1] [nM]	HepG2 MIC50 (HepG2 cells; Table 6, 48 h incubation) [µM]	MIC50 (CaCl2; Table 4) [µM]	MIC50 (CaCl2; Table 6) [µM]	Kd [2] [nM]	HepG2 MIC50 (HepG2 cells; Table 5, 48 h incubation) [µM]
Nc1nc2sc(CN3CCC(NCC(O)(Cn4cncn4)c4ccc(F)cc4F)CC3)cc2n(-c2ccc3c(c2)N(c2ccccc2)CCO3)c1=O (stereo not drawn) [Compound I-134, 3-amino-6-((4-((2-(2,4-difluorophenyl)-2-hydroxy-3-(1H-1,2,4-triazol-1-yl)propyl)amino)piperidin-1-yl)methyl)-1-(4-phenyl-3,4-dihydro-2H-benzo[b][1,4]oxazin-6-yl)thieno[2,3-b]pyrazin-2(1H)-one]	1050	15	3.13 (≈ 2.27 µg/mL)	3.13 (≈ 2.27 µg/mL)	665	
Nc1nc2sc(CNC3CCN(CC(=O)OCCC(O)(Cn4cncn4)c4ccc(F)cc4F)CC3)cc2n(-c2ccc3c(c2)N(c2ccccc2)CCO3)c1=O (stereo not drawn) [Compound I-136, 3-(2,4-difluorophenyl)-3-hydroxy-4-(1H-1,2,4-triazol-1-yl)butyl 2-(4-(((3-amino-2-oxo-1-(4-phenyl-3,4-dihydro-2H-benzo[b][1,4]oxazin-6-yl)-1,2-dihydrothieno[2,3-b]pyrazin-6-yl)methyl)amino)piperidin-1-yl)acetate]	529	19.4	6.25 (≈ 4.99 µg/mL)	6.25 (≈ 4.99 µg/mL)	271	
CC1CC(NCc2cc3c(nc(N)c(=O)n3-c3ccc4c(c3)N(c3ccccc3)CCO4)s2)CCN1CC(O)(Cn1cncn1)c1ccc(F)cc1F (stereo not drawn) [Compound I-138, 3-amino-6-(((1-(2-(2,4-difluorophenyl)-2-hydroxy-3-(1H-1,2,4-triazol-1-yl)propyl)-2-methylpiperidin-4-yl)amino)methyl)-1-(4-phenyl-3,4-dihydro-2H-benzo[b][1,4]oxazin-6-yl)thieno[2,3-b]pyrazin-2(1H)-one]	674	7.9	2.3 (≈ 1.7 µg/mL)	2.3 (≈ 1.7 µg/mL)	445	
Nc1nc2sc(CNC3CCN(CC(O)(Cn4ccnc4)c4ccc(F)cc4F)CC3)cc2n(-c2ccc3c(c2)N(c2ccccc2)CCO3)c1=O (stereo not drawn) [Compound I-139, 3-amino-6-(((1-(2-(2,4-difluorophenyl)-2-hydroxy-3-(1H-imidazol-1-yl)propyl)piperidin-4-yl)amino)methyl)-1-(4-phenyl-3,4-dihydro-2H-benzo[b][1,4]oxazin-6-yl)thieno[2,3-b]pyrazin-2(1H)-one]	246	3.9	1.2 (≈ 0.87 µg/mL)	1.2 (≈ 0.87 µg/mL)	151	3.9
